Results from PubChem BioAssay (NCI).
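Exposure lasted 48 hours, with cells grown in 96-well plates and compounds tested at five concentrations. TGI: total growth inhibition.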

Experiments:
Assay in all cases: inhibition of tumour cell growth, NCI panel, 48 h
NCI-H23 lung = tested on: NCI-H23 lung
HL-60(TB) leukemia = tested on: HL-60(TB) leukemia
M19-MEL melanoma = tested on: M19-MEL melanoma
SK-MEL-5 melanoma = tested on: SK-MEL-5 melanoma
IGROV1 ovarian = tested on: IGROV1 ovarian
ACHN renal = tested on: ACHN renal
HCT-15 colon = tested on: HCT-15 colon
NCI-H522 lung = tested on: NCI-H522 lung
CCRF-CEM leukemia = tested on: CCRF-CEM leukemia
KM20L2 colon = tested on: KM20L2 colon
SW-620 colon = tested on: SW-620 colon
SF-295 CNS = tested on: SF-295 CNS
HOP-18 NSCLC = tested on: HOP-18 NSCLC
MALME-3M melanoma = tested on: MALME-3M melanoma
A549 NSCLC = tested on: A549 NSCLC
SN12C renal = tested on: SN12C renal
HT29 colon = tested on: HT29 colon
MOLT-4 leukemia = tested on: MOLT-4 leukemia
DMS 273 small cell lung = tested on: DMS 273 small cell lung
786-0 renal = tested on: 786-0 renal
SF-268 CNS = tested on: SF-268 CNS
HCC-2998 colon = tested on: HCC-2998 colon
HCT-116 colon = tested on: HCT-116 colon
TK-10 renal = tested on: TK-10 renal
UACC-62 melanoma = tested on: UACC-62 melanoma
OVCAR-8 ovarian = tested on: OVCAR-8 ovarian
RXF 393 renal = tested on: RXF 393 renal
UACC-257 melanoma = tested on: UACC-257 melanoma
SR leukemia = tested on: SR leukemia
SK-MEL-28 melanoma = tested on: SK-MEL-28 melanoma
HOP-62 NSCLC = tested on: HOP-62 NSCLC
RPMI-8226 leukemia = tested on: RPMI-8226 leukemia
NCI-H460 lung = tested on: NCI-H460 lung
LXFL 529 NSCLC = tested on: LXFL 529 NSCLC
SK-OV-3 ovarian = tested on: SK-OV-3 ovarian
OVCAR-3 ovarian = tested on: OVCAR-3 ovarian
SNB-19 CNS = tested on: SNB-19 CNS
K-562 leukemia = tested on: K-562 leukemia
NCI-H226 lung = tested on: NCI-H226 lung
EKVX NSCLC = tested on: EKVX NSCLC
CAKI-1 renal = tested on: CAKI-1 renal
COLO 205 colon = tested on: COLO 205 colon
DMS 114 small cell lung = tested on: DMS 114 small cell lung
U251 CNS = tested on: U251 CNS
HOP-92 NSCLC = tested on: HOP-92 NSCLC
XF 498 CNS = tested on: XF 498 CNS
SF-539 CNS = tested on: SF-539 CNS
DLD-1 colon = tested on: DLD-1 colon
LOX IMVI melanoma = tested on: LOX IMVI melanoma
KM12 colon = tested on: KM12 colon
SK-MEL-2 melanoma = tested on: SK-MEL-2 melanoma
M14 melanoma = tested on: M14 melanoma
UO-31 renal = tested on: UO-31 renal
OVCAR-4 ovarian = tested on: OVCAR-4 ovarian
A498 renal = tested on: A498 renal
SNB-75 CNS = tested on: SNB-75 CNS
SNB-78 CNS = tested on: SNB-78 CNS
OVCAR-5 ovarian = tested on: OVCAR-5 ovarian

Compound: C=C1CN2CCc3c([nH]c4ccccc34)C2CC1CC(=O)N(C)C (stereo not drawn)
- TGI (NCI-H23 lung): > 309 µM
- TGI (HL-60(TB) leukemia): > 309 µM
- TGI (M19-MEL melanoma): > 309 µM
- TGI (SK-MEL-5 melanoma): > 309 µM
- TGI (IGROV1 ovarian): > 309 µM
- TGI (ACHN renal): > 309 µM
- TGI (HCT-15 colon): > 309 µM
- TGI (NCI-H522 lung): > 309 µM
- TGI (CCRF-CEM leukemia): > 309 µM
- TGI (KM20L2 colon): > 309 µM
- TGI (SW-620 colon): > 309 µM
- TGI (SF-295 CNS): > 309 µM
- TGI (HOP-18 NSCLC): > 309 µM
- TGI (MALME-3M melanoma): > 309 µM
- TGI (A549 NSCLC): > 309 µM
- TGI (SN12C renal): > 309 µM
- TGI (HT29 colon): > 309 µM
- TGI (MOLT-4 leukemia): > 309 µM
- TGI (DMS 273 small cell lung): > 309 µM
- TGI (786-0 renal): > 309 µM
- TGI (SF-268 CNS): > 309 µM
- TGI (HCC-2998 colon): > 309 µM
- TGI (HCT-116 colon): > 309 µM
- TGI (TK-10 renal): > 309 µM
- TGI (UACC-62 melanoma): > 309 µM
- TGI (OVCAR-8 ovarian): > 309 µM
- TGI (RXF 393 renal): > 309 µM
- TGI (UACC-257 melanoma): > 309 µM
- TGI (SR leukemia): > 309 µM
- TGI (SK-MEL-28 melanoma): > 309 µM
- TGI (HOP-62 NSCLC): > 309 µM
- TGI (RPMI-8226 leukemia): > 309 µM
- TGI (NCI-H460 lung): > 309 µM
- TGI (LXFL 529 NSCLC): > 309 µM
- TGI (SK-OV-3 ovarian): > 309 µM
- TGI (OVCAR-3 ovarian): > 309 µM
- TGI (SNB-19 CNS): > 309 µM
- TGI (K-562 leukemia): > 309 µM
- TGI (NCI-H226 lung): > 309 µM
- TGI (EKVX NSCLC): > 309 µM
- TGI (CAKI-1 renal): > 309 µM
- TGI (COLO 205 colon): > 309 µM
- TGI (DMS 114 small cell lung): > 309 µM
- TGI (U251 CNS): > 309 µM
- TGI (HOP-92 NSCLC): > 309 µM
- TGI (XF 498 CNS): > 309 µM
- TGI (SF-539 CNS): > 309 µM
- TGI (DLD-1 colon): > 309 µM
- TGI (LOX IMVI melanoma): > 309 µM
- TGI (KM12 colon): > 309 µM
- TGI (SK-MEL-2 melanoma): > 309 µM

Compound: CC(N)C(C)c1ccccc1 (stereo not drawn)
- TGI (NCI-H23 lung): > 100 µM
- TGI (HL-60(TB) leukemia): > 100 µM
- TGI (SK-MEL-5 melanoma): > 100 µM
- TGI (IGROV1 ovarian): > 100 µM
- TGI (ACHN renal): > 100 µM
- TGI (HCT-15 colon): > 100 µM
- TGI (NCI-H522 lung): > 100 µM
- TGI (CCRF-CEM leukemia): > 100 µM
- TGI (KM20L2 colon): > 100 µM
- TGI (SW-620 colon): > 100 µM
- TGI (M14 melanoma): > 100 µM
- TGI (SF-295 CNS): > 100 µM
- TGI (HOP-18 NSCLC): > 100 µM
- TGI (MALME-3M melanoma): > 100 µM
- TGI (A549 NSCLC): > 100 µM
- TGI (UO-31 renal): > 100 µM
- TGI (SN12C renal): > 100 µM
- TGI (HT29 colon): > 100 µM
- TGI (MOLT-4 leukemia): > 100 µM
- TGI (DMS 273 small cell lung): > 100 µM
- TGI (786-0 renal): > 100 µM
- TGI (SF-268 CNS): > 100 µM
- TGI (HCC-2998 colon): > 100 µM
- TGI (HCT-116 colon): > 100 µM
- TGI (TK-10 renal): > 100 µM
- TGI (OVCAR-4 ovarian): > 100 µM
- TGI (UACC-62 melanoma): > 100 µM
- TGI (OVCAR-8 ovarian): > 100 µM
- TGI (RXF 393 renal): > 100 µM
- TGI (UACC-257 melanoma): > 100 µM
- TGI (SR leukemia): > 100 µM
- TGI (SK-MEL-28 melanoma): > 100 µM
- TGI (HOP-62 NSCLC): > 100 µM
- TGI (A498 renal): > 100 µM
- TGI (RPMI-8226 leukemia): > 100 µM
- TGI (NCI-H460 lung): > 100 µM
- TGI (SNB-75 CNS): > 100 µM
- TGI (LXFL 529 NSCLC): > 100 µM
- TGI (SK-OV-3 ovarian): > 100 µM
- TGI (SNB-78 CNS): > 100 µM
- TGI (OVCAR-3 ovarian): > 100 µM
- TGI (OVCAR-5 ovarian): > 100 µM
- TGI (SNB-19 CNS): > 100 µM
- TGI (K-562 leukemia): > 100 µM
- TGI (NCI-H226 lung): > 100 µM
- TGI (EKVX NSCLC): > 100 µM
- TGI (CAKI-1 renal): > 100 µM
- TGI (COLO 205 colon): > 100 µM
- TGI (DMS 114 small cell lung): > 100 µM
- TGI (U251 CNS): > 100 µM
- TGI (HOP-92 NSCLC): > 100 µM
- TGI (XF 498 CNS): > 100 µM
- TGI (SF-539 CNS): > 100 µM
- TGI (DLD-1 colon): > 100 µM
- TGI (LOX IMVI melanoma): > 100 µM
- TGI (KM12 colon): > 100 µM
- TGI (SK-MEL-2 melanoma): > 100 µM
